Measured values taken from the supplement of paper PMC11451515.

Test system: NOMO1
Assay: cell viability relative to DMSO control; higher = less cytotoxic
Conditions: 48 h
Procedure, shortened: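 Viability, reported as a per-plate percentage of DMSO wells with cell-free wells as background, came from CellTiter-Glo One luminescence. Reading took place after 48 h at 37°C. Before that, NOMO1 or SEM (500 cells/well) or P12-Ichikawa (1000 cells/well) leukemia cells, adapted for at least four passages in each medium, were seeded in 1536-well plates (5 μl) and pin-dosed with library compounds in DMSO, 47 μM to 0.79 nM over 11 threefold points.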

[1] = HPLM + 10% dialyzed FBS, 0.000781 µM
[2] = HPLM + 10% dialyzed FBS, 0.00234 µM
[3] = HPLM + 10% dialyzed FBS, 0.00702 µM
[4] = HPLM + 10% dialyzed FBS, 0.0211 µM
[5] = HPLM + 10% dialyzed FBS, 0.0632 µM
[6] = HPLM + 10% dialyzed FBS, 0.19 µM
[7] = HPLM + 10% dialyzed FBS, 0.569 µM
[8] = HPLM + 10% dialyzed FBS, 1.71 µM
[9] = HPLM + 10% dialyzed FBS, 5.12 µM
[10] = HPLM + 10% dialyzed FBS, 15.4 µM
[11] = HPLM + 10% dialyzed FBS, 46.1 µM
[12] = RPMI 5 mM glucose + 10% FBS, 0.000781 µM
[13] = RPMI 5 mM glucose + 10% FBS, 0.00234 µM
[14] = RPMI 5 mM glucose + 10% FBS, 0.00702 µM
[15] = RPMI 5 mM glucose + 10% FBS, 0.0211 µM
[16] = RPMI 5 mM glucose + 10% FBS, 0.0632 µM
[17] = RPMI 5 mM glucose + 10% FBS, 0.19 µM
[18] = RPMI 5 mM glucose + 10% FBS, 0.569 µM
[19] = RPMI 5 mM glucose + 10% FBS, 1.71 µM
[20] = RPMI 5 mM glucose + 10% FBS, 5.12 µM
[21] = RPMI 5 mM glucose + 10% FBS, 15.4 µM
[22] = RPMI 5 mM glucose + 10% FBS, 46.1 µM
[23] = RPMI 5 mM glucose + 10% dialyzed FBS, 0.000781 µM
[24] = RPMI 5 mM glucose + 10% dialyzed FBS, 0.00234 µM
[25] = RPMI 5 mM glucose + 10% dialyzed FBS, 0.00702 µM
[26] = RPMI 5 mM glucose + 10% dialyzed FBS, 0.0211 µM
[27] = RPMI 5 mM glucose + 10% dialyzed FBS, 0.0632 µM
[28] = RPMI 5 mM glucose + 10% dialyzed FBS, 0.19 µM
[29] = RPMI 5 mM glucose + 10% dialyzed FBS, 0.569 µM
[30] = RPMI 5 mM glucose + 10% dialyzed FBS, 1.71 µM
[31] = RPMI 5 mM glucose + 10% dialyzed FBS, 5.12 µM
[32] = RPMI 5 mM glucose + 10% dialyzed FBS, 15.4 µM
[33] = RPMI 5 mM glucose + 10% dialyzed FBS, 46.1 µM

## Cn1c(Nc2ccc(C(F)(F)F)cc2)nc2cc(Oc3ccnc(-c4nc(C(F)(F)F)c[nH]4)c3)ccc21
[1]
  cell viability: 125%
[2]
  cell viability: 125%
[3]
  cell viability: 120%
[4]
  cell viability: 125%
[5]
  cell viability: 144%
[6]
  cell viability: 145%
[7]
  cell viability: 140%
[8]
  cell viability: 129%
[9]
  cell viability: 114%
[10]
  cell viability: 100%
[11]
  cell viability: 45.7%
[12]
  cell viability: 124%
[13]
  cell viability: 123%
[14]
  cell viability: 118%
[15]
  cell viability: 134%
[16]
  cell viability: 130%
[17]
  cell viability: 141%
[18]
  cell viability: 124%
[19]
  cell viability: 149%
[20]
  cell viability: 122%
[21]
  cell viability: 119%
[22]
  cell viability: 29.5%
[23]
  cell viability: 121%
[24]
  cell viability: 129%
[25]
  cell viability: 121%
[26]
  cell viability: 127%
[27]
  cell viability: 140%
[28]
  cell viability: 130%
[29]
  cell viability: 125%
[30]
  cell viability: 125%
[31]
  cell viability: 104%
[32]
  cell viability: 106%
[33]
  cell viability: 26.8%

## O=C(NC[C@H](O)CN1CCc2ccccc2C1)c1cc(NC2COC2)ncn1
[1]
  cell viability: 93.5%
[2]
  cell viability: 117%
[3]
  cell viability: 173%
[4]
  cell viability: 29.5%
[5]
  cell viability: 64.5%
[6]
  cell viability: 99.2%
[7]
  cell viability: 101%
[8]
  cell viability: 72.7%
[9]
  cell viability: 70.7%
[10]
  cell viability: 56.1%
[11]
  cell viability: 38.6%
[12]
  cell viability: 92.9%
[13]
  cell viability: 80.4%
[14]
  cell viability: 88.2%
[15]
  cell viability: 99.3%
[16]
  cell viability: 83%
[17]
  cell viability: 89.9%
[18]
  cell viability: 94.4%
[19]
  cell viability: 92.6%
[20]
  cell viability: 84.3%
[21]
  cell viability: 75.1%
[22]
  cell viability: 74.2%
[23]
  cell viability: 83.5%
[24]
  cell viability: 92.8%
[25]
  cell viability: 93.5%
[26]
  cell viability: 101%
[27]
  cell viability: 84.7%
[28]
  cell viability: 91.8%
[29]
  cell viability: 68.4%
[30]
  cell viability: 66.4%
[31]
  cell viability: 81.4%
[32]
  cell viability: 67.3%
[33]
  cell viability: 63.3%

## CC(C)[C@@H](C[S+](=O)([O-])C(C)C)N1C(=O)[C@@](C)(CC(=O)O)C[C@H](c2cccc(Cl)c2)[C@H]1c1ccc(Cl)cc1
[1]
  cell viability: 122%
[2]
  cell viability: 115%
[3]
  cell viability: 129%
[4]
  cell viability: 143%
[5]
  cell viability: 140%
[6]
  cell viability: 97.9%
[7]
  cell viability: 36.4%
[8]
  cell viability: 35.6%
[9]
  cell viability: 31.2%
[10]
  cell viability: 33.6%
[11]
  cell viability: 29.3%
[12]
  cell viability: 128%
[13]
  cell viability: 106%
[14]
  cell viability: 113%
[15]
  cell viability: 109%
[16]
  cell viability: 121%
[17]
  cell viability: 128%
[18]
  cell viability: 111%
[19]
  cell viability: 64.8%
[20]
  cell viability: 24.5%
[21]
  cell viability: 19.5%
[22]
  cell viability: 22.2%
[23]
  cell viability: 117%
[24]
  cell viability: 98.5%
[25]
  cell viability: 108%
[26]
  cell viability: 112%
[27]
  cell viability: 145%
[28]
  cell viability: 132%
[29]
  cell viability: 98.5%
[30]
  cell viability: 65.9%
[31]
  cell viability: 47.1%
[32]
  cell viability: 25.2%
[33]
  cell viability: 19.1%

## CCC[C@H](N[C@@H](C)C(=O)N1[C@H](C(=O)O)C[C@@H]2CCCC[C@@H]21)C(=O)OCC
[1]
  cell viability: 115%
[2]
  cell viability: 124%
[3]
  cell viability: 119%
[4]
  cell viability: 119%
[5]
  cell viability: 105%
[6]
  cell viability: 102%
[7]
  cell viability: 115%
[8]
  cell viability: 89.4%
[9]
  cell viability: 36%
[10]
  cell viability: 54.1%
[11]
  cell viability: 43.9%
[12]
  cell viability: 97.4%
[13]
  cell viability: 101%
[14]
  cell viability: 115%
[15]
  cell viability: 109%
[16]
  cell viability: 111%
[17]
  cell viability: 106%
[18]
  cell viability: 105%
[19]
  cell viability: 95.3%
[20]
  cell viability: 86.7%
[21]
  cell viability: 78.9%
[22]
  cell viability: 64.6%
[23]
  cell viability: 114%
[24]
  cell viability: 110%
[25]
  cell viability: 118%
[26]
  cell viability: 116%
[27]
  cell viability: 108%
[28]
  cell viability: 109%
[29]
  cell viability: 96.2%
[30]
  cell viability: 87.5%
[31]
  cell viability: 66.4%
[32]
  cell viability: 72.6%
[33]
  cell viability: 48.2%

## C[C@@H](O)[C@@H]1[C@H]2[C@@H](C)\C(=C(/N2C1=O)C(=O)OCOC(=O)C(C)(C)C)SC3CN(C3)/C4=N/CCS4
[1]
  cell viability: 93.2%
[2]
  cell viability: 93.2%
[3]
  cell viability: 103%
[4]
  cell viability: 111%
[5]
  cell viability: 110%
[6]
  cell viability: 113%
[7]
  cell viability: 105%
[8]
  cell viability: 102%
[9]
  cell viability: 68.2%
[10]
  cell viability: 60.8%
[11]
  cell viability: 38.4%
[12]
  cell viability: 92.3%
[13]
  cell viability: 102%
[14]
  cell viability: 113%
[15]
  cell viability: 111%
[16]
  cell viability: 101%
[17]
  cell viability: 112%
[18]
  cell viability: 101%
[19]
  cell viability: 110%
[20]
  cell viability: 109%
[21]
  cell viability: 116%
[22]
  cell viability: 104%
[23]
  cell viability: 87.8%
[24]
  cell viability: 106%
[25]
  cell viability: 103%
[26]
  cell viability: 119%
[27]
  cell viability: 111%
[28]
  cell viability: 126%
[29]
  cell viability: 115%
[30]
  cell viability: 120%
[31]
  cell viability: 100%
[32]
  cell viability: 84.5%
[33]
  cell viability: 77.7%

## CCC(=O)OCC(=O)[C@@]1(OC(=O)CC)[C@@H](C)C[C@H]2[C@@H]3CCC4=CC(=O)C=C[C@]4(C)[C@@]3(F)[C@@H](O)C[C@@]21C
[1]
  cell viability: 117%
[2]
  cell viability: 130%
[3]
  cell viability: 111%
[4]
  cell viability: 109%
[5]
  cell viability: 115%
[6]
  cell viability: 97.4%
[7]
  cell viability: 106%
[8]
  cell viability: 62.7%
[9]
  cell viability: 43.5%
[10]
  cell viability: 28.3%
[11]
  cell viability: 25.4%
[12]
  cell viability: 99.3%
[13]
  cell viability: 98.8%
[14]
  cell viability: 107%
[15]
  cell viability: 112%
[16]
  cell viability: 112%
[17]
  cell viability: 105%
[18]
  cell viability: 116%
[19]
  cell viability: 95%
[20]
  cell viability: 84.5%
[21]
  cell viability: 16.9%
[22]
  cell viability: 18.8%
[23]
  cell viability: 110%
[24]
  cell viability: 112%
[25]
  cell viability: 117%
[26]
  cell viability: 115%
[27]
  cell viability: 118%
[28]
  cell viability: 136%
[29]
  cell viability: 108%
[30]
  cell viability: 79.1%
[31]
  cell viability: 84.3%
[32]
  cell viability: 26.4%
[33]
  cell viability: 23.9%

## OC(=O)\C1=C\N(C2=CC=C(F)C=C2)C3=C(C=C(F)C(=C3)N4CCNCC4)C1=O
[1]
  cell viability: 113%
[2]
  cell viability: 99.1%
[3]
  cell viability: 116%
[4]
  cell viability: 111%
[5]
  cell viability: 129%
[6]
  cell viability: 122%
[7]
  cell viability: 114%
[8]
  cell viability: 105%
[9]
  cell viability: 101%
[10]
  cell viability: 95.6%
[11]
  cell viability: 98.6%
[12]
  cell viability: 103%
[13]
  cell viability: 99.1%
[14]
  cell viability: 110%
[15]
  cell viability: 101%
[16]
  cell viability: 104%
[17]
  cell viability: 104%
[18]
  cell viability: 117%
[19]
  cell viability: 104%
[20]
  cell viability: 115%
[21]
  cell viability: 98.4%
[22]
  cell viability: 94.6%
[23]
  cell viability: 107%
[24]
  cell viability: 106%
[25]
  cell viability: 116%
[26]
  cell viability: 105%
[27]
  cell viability: 106%
[28]
  cell viability: 113%
[29]
  cell viability: 133%
[30]
  cell viability: 100%
[31]
  cell viability: 105%
[32]
  cell viability: 104%
[33]
  cell viability: 85.8%
